# Patent US20110070232A1, “Combination Therapy with an Antitumor Alkaloid” (Pharma Mar, S.A., priority 2008, published 2011)
# Read-outs that look alike come from different tables or passages of the source.
# How the values were obtained:
# [1] = tested on: AGS human gastric carcinoma cell line; experiment: IC50 determination, MTS assay, 72 h (Example 1); type: cell-based; conditions: Homo sapiens, 72 hours of drug exposure, read-out: IC50
# Protocol: (§1) The human gastric carcinoma cell lines selected for this assay were the following: Hs746T, HGC-27, and AGS cell lines. Hs746T and AGS cell lines were grown in Dulbecco's modified Eagle's medium (DMEM) supplemented with 10% Fetal Bovine Serum (FBS), 1.5 g/L sodium bicarbonate, 4.5 g/L glucose and 4 mM L-glutamine. HGC-27 cell line was grown in Iscove's modified Dulbecco's medium (IMDM) supplemented with 20% FBS and 2 mM L-glutamine.
# (§2) The day before plating, the cells were fed with fresh, complete growth media. On the harvest (plating) day, cells were counted by Trypan Blue exclusion staining method.
# (§3) Cells were harvested and seeded in 96 well microtiter plates at 10,000 cells density in 150 μL of media and incubated for 24 hours to allow the cells to attach before drug addition. To collect reference data, the MTS assay was done on untreated cells at time 0 (after incubation of cells for 24 hours).
# (§4) The cytotoxic effect was measured by the MTS Assay (Tetrazolium), which is a colorimetric method for determining the number of viable cells. After the incubation period (24 hours for the Day 0 plate and 72 hours for the Test and Control plates), 25 μL of MTS+PMS solution was added to each microtiter well and incubated for 4 hours at 37° C. Plates were then removed from incubator and placed on plate shaker for 5 minutes (covered with aluminum foil for protection from light). Optical densities were read at 490 nm on spectrophotometer plate reader.
# (§5) IC50 values were calculated from an average of two to four assays for each of the test agents.
# [2] = tested on: HGC-27 human gastric carcinoma cell line; experiment: IC50 determination, MTS assay, 72 h (Example 1); type: cell-based; conditions: Homo sapiens, 72 hours of drug exposure, read-out: IC50
# Protocol: as §1, §2, §3, §4, §5
# [3] = tested on: Hs746T human gastric carcinoma cell line; experiment: IC50 determination, MTS assay, 72 h (Example 1); type: cell-based; conditions: Homo sapiens, 72 hours of drug exposure, read-out: IC50
# Protocol: as §1, §2, §3, §4, §5
# [4] = tested on: Hs746T tumors; type: in vivo, mice; conditions: for % Inhibition: PM00104 0.9 and doxorubicin 6 mg/kg/day
# Description: (§6) Female athymic nude mice (Harlan Sprague Dawley, Madison, Wis.) were utilized for all experiments. Animals were housed in ventilated rack caging with food and water ad libitum. The mice were acclimated for at least 5 days prior to tumor implantation with a tumor cell suspension.
# The tumor model used in these studies was Hs746T cell line, which was obtained from the ATCC (Manassas, Va.).
# Treatments were initiated on DPI 15.
# 5-FU was provided as a solution which was further diluted with water for injection.
# (§7) Tumor size measurements were recorded twice weekly from the treatment initiation until the termination of the study.
# (§8) Mean, standard deviation and standard error of the mean were determined for tumor volume for all animal groups at all assessments. Student's t test was performed on tumor volumes at each measurement day, including at the end of the study, to determine whether there were any statistically significant differences between combination treatment groups and single monotherapy treatment groups.
# [5] = tested on: MRI-H-254 tumors; type: in vivo, mice
# Protocol: as §6, with “with” for “with a”, “fragments. The Vehicle Control group contained 11 mice, groups 2-6 contained 8 mice/group, and the rest of groups contained 9 mice/group.” for “cell suspension.”
# This cell line was grown and implanted to the animals as described in Example 11.
# Tumor measurements were determined as disclosed in Example 4. […] Treatments were initiated on DPI 17.
# PM00104 was provided in the form of vials of lyophilized PM00104 powder which was reconstituted with water for injection.
# as §7, §8
# The definition and criteria for the evaluation of potentiation and the degree of additivity for the combination therapy were the same as those disclose in Example 4.
# [6] = tested on: MCF-7 (breast cancer) cell line; experiment: IC50 determination, MIT (tetrazolium) assay, 72 h (Example 18); type: cell-based; conditions: Homo sapiens, MCF7; MCF-7, 72 hours of drug exposure
# Protocol: (§9) Before plating, cell cultures were trypsinized and cell number estimated using an automated flow cytometer.
# (§10) Cells were harvested and seeded in 96 well microtiter plates at the appropriate cell density (5,000-10,000 cells) in 150 μL of media and incubated for 24 hours to allow the cells to attach before drug addition.
# (§11) After the incubation period (72 hours), 50 μL of MIT solution was added to each microtiter well and incubated for further 8 hours at 37° C. The culture medium was then removed and 50 μl, of DMSO were added to dissolve the MIT crystals. Optical densities were read at 540 nm on spectrophotometer microplate reader.
# as §5
# [7] = tested on: MDA-MB-231 (breast cancer) cell line; experiment: as above; type: cell-based; conditions: Homo sapiens; MDA-MB-231, 72 hours of drug exposure
# Protocol: as §9, §10, §11, §5
# [8] = PM00104 0.9, 5-FU 50 (DPI 15) then 100 (DPI 22 & 29), irinotecan 20, doxorubicin 6 mg/kg/day
# [9] = PM00104 0.90 IV, doxorubicin 6 IP, paclitaxel 12.5 IP mg/kg/day (G2, G5, G6, G7, G8)
smiles,measurement,setting,value
"COc1cccc2c1C(=O)c1c(O)c3c(c(O)c1C2=O)C[C@@](O)(C(=O)CO)C[C@@H]3O[C@H]1C[C@H](N)[C@H](O)[C@H](C)O1 [Doxorubicin, doxorubicin]",IC50,[1],0.156 µg/mL
same,IC50,[2],0.177 µg/mL
same,IC50,[3],8.97 µg/mL
same,% T/C on day 15,[4]; [8],104.2%
same,% T/C on day 19,[4]; [8],79.8%
same,% T/C on day 26,[4]; [8],48.9%
same,% T/C on day 29,[4]; [8],40.2%
same,% T/C on day 33,[4]; [8],51.4%
same,% Inhibition,[4]; day 15,−4.2%
same,% Inhibition,[4]; day 19,20.2%
same,% Inhibition,[4]; day 22,52.6%
same,% Inhibition,[4]; day 26,51.1%
same,% Inhibition,[4]; day 29,59.8%
same,% Inhibition,[4]; day 33,48.6%
same,% T/C on day 17,[5]; [9],98.2%
same,% T/C on day 20,[5]; [9],93.5%
same,% T/C on day 24,[5]; [9],76.2%
same,% T/C on day 27,[5]; [9],64.4%
same,% T/C on day 32,[5]; [9],56.3%
same,% T/C on day 35,[5]; [9],24.8%
same,% T/C on day 39,[5]; [9],19.7%
same,% T/C on day 47,[5]; [9],15.7%
same,% Inhibition,"[5]; day 14, PM00104 0.23, doxorubicin 6, paclitaxel 12.5 mg/kg/day",1.8%
same,% Inhibition,"[5]; day 14, PM00104 0.45, doxorubicin 6, paclitaxel 12.5 mg/kg/day",1.8%
same,% Inhibition,"[5]; day 14, PM00104 0.9 and doxorubicin 6 mg/kg/day",1.8%
same,% Inhibition,"[5]; day 20, PM00104 0.23, doxorubicin 6, paclitaxel 12.5 mg/kg/day",6.5%
same,% Inhibition,"[5]; day 20, PM00104 0.45, doxorubicin 6, paclitaxel 12.5 mg/kg/day",6.5%
same,% Inhibition,"[5]; day 20, PM00104 0.9 and doxorubicin 6 mg/kg/day",6.5%
same,% Inhibition,"[5]; day 24, PM00104 0.23, doxorubicin 6, paclitaxel 12.5 mg/kg/day",23.8%
same,% Inhibition,"[5]; day 24, PM00104 0.45, doxorubicin 6, paclitaxel 12.5 mg/kg/day",23.8%
same,% Inhibition,"[5]; day 24, PM00104 0.9 and doxorubicin 6 mg/kg/day",23.8%
same,% Inhibition,"[5]; day 27, PM00104 0.23, doxorubicin 6, paclitaxel 12.5 mg/kg/day",35.6%
same,% Inhibition,"[5]; day 27, PM00104 0.45, doxorubicin 6, paclitaxel 12.5 mg/kg/day",35.6%
same,% Inhibition,"[5]; day 27, PM00104 0.9 and doxorubicin 6 mg/kg/day",35.6%
same,% Inhibition,"[5]; day 32, PM00104 0.23, doxorubicin 6, paclitaxel 12.5 mg/kg/day",43.7%
same,% Inhibition,"[5]; day 32, PM00104 0.45, doxorubicin 6, paclitaxel 12.5 mg/kg/day",43.7%
same,% Inhibition,"[5]; day 32, PM00104 0.9 and doxorubicin 6 mg/kg/day",43.7%
same,% Inhibition,"[5]; day 35, PM00104 0.23, doxorubicin 6, paclitaxel 12.5 mg/kg/day",75.2%
same,% Inhibition,"[5]; day 35, PM00104 0.45, doxorubicin 6, paclitaxel 12.5 mg/kg/day",75.2%
same,% Inhibition,"[5]; day 35, PM00104 0.9 and doxorubicin 6 mg/kg/day",75.2%
same,% Inhibition,"[5]; day 39, PM00104 0.23, doxorubicin 6, paclitaxel 12.5 mg/kg/day",80.3%
same,% Inhibition,"[5]; day 39, PM00104 0.45, doxorubicin 6, paclitaxel 12.5 mg/kg/day",80.3%
same,% Inhibition,"[5]; day 39, PM00104 0.9 and doxorubicin 6 mg/kg/day",80.3%
same,% Inhibition,"[5]; day 47, PM00104 0.23, doxorubicin 6, paclitaxel 12.5 mg/kg/day",84.3%
same,% Inhibition,"[5]; day 47, PM00104 0.9 and doxorubicin 6 mg/kg/day",84.3%
same,IC50,[6],4000 nM
same,IC50,[7],1900 nM
